The values below come from patent publication US10987345B2, “Method for assessing the efficacy of IMiDs and composition or combination for use in treating IMiD sensitive diseases” (Klinikum Rechts Der Isar Der Technischen Universitat Munchen, priority 2014, dated 2021).

One data set concerns CD147/MCT1 complex. Put plainly: Immunoblot analysis of CD147 and MCT1 protein levels in myeloma cells. It counts as cell-based, human. To be noted: MM1S cells; 10 μM lenalidomide, 100 nM pomalidomide, 100 μM thalidomide. Here is the method: HEK 293T and HeLa cells were grown in Dulbecco's modified Eagle's Medium (DMEM), each media containing 10% fetal bovine serum. (FBS). The human multiple myeloma cell lines MM1.S, U266, KMS-12-BM, RPMI 8226 and JJN3 were cultured in RPMI-1640 with 10% FBS. […] Sf9 insect cells (Life technologies) were cultured in Sf-900 II serum-free medium (SFM, Life technologies) supplemented with 10% heat-inactivated FBS and 10 μg/ml gentamycin. High Five cells (Invitrogen) were cultured in Express Five SFM supplemented with 10 mM L-glutamine and 10 μg/ml gentamycin. All cells tested mycoplasma negative by a PCR detection method.
Cell samples were lysed in lysis buffer (NaCl 150 mM, Tris-HCl 50 mM, MgCl2 5 mM, EDTA 1 mM, INP-40 0.1%, Glycerol 5% and inhibitors) for whole cell lysates, immunoprecipitations or pulldown experiments. Details of extract preparation, immunoprecipitation, and immunoblotting, were previously described. Briefly, the cellular lysates were centrifuged 15 min at 14 000 rpm at 4° C. to separate from cellular debris. Protein concentration in the supernatants was measured before Laemmli buffer was added. The lysates were separated by SDS-PAGE and blotted onto PVDF (polyvinylidene difluoride) membranes. After blotting, PVDF membranes were stained With. Ponceau solution to evaluate protein loading. After washing and blocking unspecific bindings in 5% milk; the membranes were incubated with primary antibodies. After addition of horseradish peroxidase coupled secondary antibodies, western blot membranes were developed using the ECL (enhanced chemoluminescence) method (SuperSignal West reagents from Thermo Scientific). For immunoprecipitations (IPs), cell lysates were incubated with Flag-M2 agarose beads (Sigma) for Flag-IPs, HA-7 agarose beads (Sigma) for HA-IPs, or protein-A sepharose beads (GE Healthcare) together with primary rabbit antibodies for binding of endogenous proteins (e.g. for CRBN-IP). For the experiments using a protein cross linker, DSS (Pierce) was added to the cells to a final concentration of 1 mM for 45 minutes at RT. The Cross linker was quenched by addition of Tris-HCl, pH 7.5 20 mM and cell lysis was performed as described, with the only exception of HEPES buffer 50 mM, pH 7.5 instead of Tris-HCl buffer. After washing the beads four times in lysis buffer, Laemmli buffer was added and proteins were analyzed by SDS-electrophoresis.

The test system of a further data set is IKZF1/3. Put plainly: Immunoblot analysis of IKZF1/IKZF3 in myeloma cells. It counts as cell-based, human. To be noted: MM1S cells; 10 μM lenalidomide, 100 nM pomalidomide, 100 μM thalidomide.
The next data set relates to Zebrafish larvae. Put plainly: Zebrafish teratotoxicity phenotype at 3 dpf. It counts as in vivo. To be noted: for Phenotype after CD147 knock-down by morpholino: 0.1 mM or 0.25 mM morpholino injected, 3 dpf. The method, then: Briefly, Zebrafish larvae were injected with different concentrations of splice-Morpholinos targeting all 3 predicted CD147 isoforms in zebrafish or treated with 400 μM Thalidomide on the day of fertilization. On day and 3 after fertilization, the phenotypes of the larvae were analysed.
The wildtype strain AB was used in all experiments. All embryos were kept at 28.5° C. in E3 media (5 mM NaCl, 0.17 mM KCl, 0.33 mM CaCl2, 0.33 mM MgSO4) supplemented with 10^−5% methylene blue. All experiments were performed in accordance with animal protection standards of the Ludwig-Maximilians University Munich and were approved by the government of Upper Bavaria (Regierung von Oberbayem, Munich, Germany).
Knock-down of CD147 in zebrafish was done by microinjection of 2-4 pl of 0.1 mM or 0.25 mM antisense morpholino oligo (Gene Tools, LLC) targeting either a splice junction of CD147 (CD147 splice MO; exonic sequence in upper case: 5′-aagaggtgaagaacatacAAGTGTT-3′ (SEQ ID NO: 18) or the ATG start codon (CD147 ATG MO; 5′-[…]-3′ (SEQ. ID NO: 39) at the 1 cell stage. Injected eggs and controls were cultured at 28° C. in E3 buffer. For each experiment, 50 eggs were injected.
For thalidomide treatment, fertilized embryos were randomly split into two groups at 3 hours post fertilization (hpf): One group was transferred into E3 containing 0.1% DMSO, the other group into E3 with 400 μM thalidomide (Sigma-Aldrich) and kept at 28.5° C. for 3 days.
Larvae were analyzed for Phenotypes at 3 days post fertilization (dpf). For each experiment, 10 embryos were treated. CD147 splice MO-injected larvae were compared to control larvae and thalidomide treated larvae were compared to DMSO controls. Larvae were anesthetized with Tricaine (0.016% w/v) and mounted in 3% methylcellulose on coverslips. DIC images were taken with an Axioplan2 compound microscope (Zeiss).

The subject of data set [1] is CD147. Put plainly: Pulse chase analysis of CD147 protein maturation in MM1S cells. To be noted: 35S-Met/Cys pulse-chase. It counts as cell-based, human. The method, then:
In a complementary approach using pulse-chase analysis, CD147 protein maturation from the immature core-glycosylated to the mature high-glycosylated form necessary for membrane localization was investigated. […] Importantly, treatment with MLN4924, an inhibitor of Cullin-RING ubiquitin ligases, had no effect on CD147 stability or processing, thereby further underscoring a ubiquitin-independent effect of CRBN on CD147 (FIG. 13h).
Labelling of MM1S cells with ^35S-Met/Cys was essentially performed as described previously. […] Newly translated proteins were metabolically labeled for 45 Minutes with methionine- and cysteine-free DMEM containing 0.2 mCi/ml [35S]-Met/Cys. Cells were then washed three times with PBS (37° C.) and incubated with DMEM for up to 24 hours.

Data set [2] has as its system CD147. Put plainly: Semiquantitative RT-PCR verification of CD147 knockdown in zebrafish. It counts as in vivo. To be noted: CD147 splice morpholino at indicated concentrations. Here is the method:
For verification of efficient CD147 knock-down in zebrafish embryos, total RNA of larvae injected with CD147 splice morpholino or control was extracted using the QIAshredder and RNeasy Kit (both Qiagen); cDNA synthesis was performed as described above. PCR reactions were performed on the peqSTAR2x gradient thermocycler (Peqlab) following standard procedures and using the following primers: […]
One fifth of the PCR reaction was loaded onto an agarose gel and subjected to gel electrophoresis.

Procedure for IKZF1/3: HEK 293T and HeLa cells were grown in Dulbecco's modified Eagle's Medium (DMEM), each media containing 10% fetal bovine serum. […] The human multiple myeloma cell lines MM1.S, U266, KMS-12-BM, RPMI 8226 and JJN3 were cultured in RPMI-1640 with 10% FBS. […] Sf9 insect cells (Life technologies) were cultured in Sf-900 II serum-free medium (SFM, Life technologies) supplemented with 10% heat-inactivated FBS and 10 μg/ml gentamycin. High Five cells (Invitrogen) were cultured in Express Five SFM supplemented with 10 mM L-glutamine and 10 μg/ml gentamycin. All cells tested mycoplasma negative by a PCR detection method.
Cell samples were lysed in lysis buffer (NaCl 150 mM, Tris-HCl 50 mM, MgCl2 5 mM, EDTA 1 mM, INP-40 0.1%, Glycerol 5% and inhibitors) for whole cell lysates, immunoprecipitations or pulldown experiments. […] Briefly, the cellular lysates were centrifuged 15 min at 14 000 rpm at 4° C. to separate from cellular debris. Protein concentration in the supernatants was measured before Laemmli buffer was added. The lysates were separated by SDS-PAGE and blotted onto PVDF (polyvinylidene difluoride) membranes. After blotting, PVDF membranes were stained With. […] After washing the beads four times in lysis buffer, Laemmli buffer was added and proteins were analyzed by SDS-electrophoresis.

On to `Nc1cccc2c1C(=O)N(C1CCC(=O)NC1=O)C2=O` (stereo not drawn) [pomalidomide], for which, in the data set on CD147/MCT1 complex, the “Destabilization of CD147/MCT1” value is on record as “destabilize CD147/MCT1”. Besides, the IKZF1/3 degradation result in the data set with IKZF1/3 was “restricted to lenalidomide and pomalidomide”. For `O=C1CCC(N2C(=O)c3ccccc3C2=O)C(=O)N1` (stereo not drawn) [thalidomide, α-N-phthalimido-glutarimide], the “Destabilization of CD147/MCT1” value in the data set with CD147/MCT1 complex is listed as “destabilize CD147/MCT1”. For the same compound, the IKZF1/3 degradation result in the data set on IKZF1/3 is “restricted to lenalidomide and pomalidomide”. Besides, the Teratotoxic phenotype entry in the data set on Zebrafish larvae (400 μM thalidomide, 3 days post fertilization) is “teratotoxic phenotype, including reduced size of head, fins, and eyes”. “ATG MO: antisense morpholino oligo targeting the ATG start codon of CD147, 5′-GCGCCAAAGAGCTTCTTTTCCATGC-3′ (SEQ. ID NO: 39) (all phosphorodiamidate morpholino (PMO))”: the “Phenotype after CD147 knock-down by morpholino” value with Zebrafish larvae is “identical phenotypes as thalidomide treatment”.

Take `NS(=O)(=O)OC[C@@H]1C[C@@H](n2ccc3c(N[C@H]4CCc5ccccc54)ncnc32)C[C@@H]1O` [MLN4924]: the “CD147 stability or processing” value in the data set with CD147 [1] is “no effect”.

With “splice MO: antisense morpholino oligo targeting a splice junction of CD147, 5′-aagaggtgaagaacatacAAGTGTT-3′ (SEQ ID NO: 18) (antisense AAGAGGTGAAGAACATACAAGTGTT; all phosphorodiamidate morpholino (PMO))”, the “Phenotype after CD147 knock-down by morpholino” value in the data set with Zebrafish larvae is listed as “identical phenotypes as thalidomide treatment”. The “CD147 knockdown (RT-PCR)” value with CD147 [2] is “efficient and dose dependent CD147 knockdown”.
